Where a SMILES comes first, the peptide text is derived from it. Bridges are numbered along the chain shown (N, C = ends). Where no end group is shown, it is not given here.

Data set [1] relates to pseudotyped SARS-CoV-2 viruses in lung epithelial A549 cells. It counts as cell-based. Particulars: 25 μg/mL.
In data set [2] the test system is pseudotyped viruses expressing SARS-CoV-2 spike proteins (Wuhan-Hu-1).
In data set [3] the test system is pseudotyped SARS-CoV-2 viruses in intestinal epithelial Caco-2 cells. Particulars: 25 μg/mL.
Data set [4] concerns HEK 293T-hACE2 cells. Description: Cytotoxicity assay (MTS). The note with it: 1-50 μg/mL, 24 h; hACE2-expressing HEK293T cells; O.D. 490 nm; 4-6 samples.

On to `CC[C@H](C)[C@@H]1NC(=O)[C@H](CCC(=O)O)NC(=O)[C@@H]2CSSC[C@@H]3NC(=O)[C@H](Cc4ccc(O)cc4)NC(=O)[C@@H](NC(=O)[C@@H](NC(=O)[C@H](C)N)[C@@H](C)O)CSSC[C@@H](C(=O)N[C@@H](CCCNC(=N)N)C(=O)O)NC(=O)[C@H](CSSC[C@H](NC(=O)[C@H](CCCNC(=N)N)NC(=O)CNC(=O)[C@H]([C@@H](C)O)NC(=O)[C@H](CCCNC(=N)N)NC3=O)C(=O)N[C@@H](C)C(=O)N[C@@H]([C@@H](C)O)C(=O)N[C@@H](CCCNC(=N)N)C(=O)N[C@@H](CCC(=O)O)C(=O)N[C@@H](CO)C(=O)N[C@@H](CC(C)C)C(=O)N[C@@H](CO)C(=O)NCC(=O)N[C@@H](C(C)C)C(=O)N2)NC(=O)[C@H](CC(C)C)NC(=O)[C@H](CCCNC(=N)N)NC(=O)[C@H](Cc2ccc(O)cc2)NC(=O)[C@H](CC(C)C)NC(=O)[C@H](CCCNC(=N)N)NC(=O)CNC(=O)[C@H](CO)NC1=O` [HD5] (H-ATCYCRTGRCATRESLSGVCEISGRLYRLCCR-OH; disulfide 3-31, 5-20, 10-30 (inferred); N-terminus and C-terminus assumed), for which the “anti-SARS-CoV-2 activity in A549 cells (in words)” value in data set [1] is given as “exhibited anti-SARS-CoV-2 activity”. In data set [2], the “post-entry effect on infection (in words)” value is on record as “None of the tested defensins affected infection after viral entry”, the “protection by pre-treatment of cells (in words)” value is given as “partially blocked viral infection” and the “suppression of SARS-CoV-2 infection” value was determined as 60%. Also, in data set [2] (pseudotyped viruses expressing spike proteins (Wuhan-Hu-1, 48 h, 50 μg/mL)), the “inhibition of the earlier Wuhan strain” value was 96%. Besides, the “anti-SARS-CoV-2 activity in Caco-2 cells (in words)” value in data set [3] is listed as “exhibited anti-SARS-CoV-2 activity”. In addition, the “cytotoxicity (cell viability, MTS, in words)” value in data set [4] was “not cytotoxic”.

As to HD6, the “anti-SARS-CoV-2 activity (in words)” value in data set [2] was “only blocked SARS-CoV-2 infection at the highest concentration tested”. The “cytotoxicity (cell viability, MTS, in words)” value in data set [4] was “not cytotoxic”.

In the case of “HNP4 (VCSCRLVFCRRTELRVGNCLIGGVSFTYCCTRV; ends and bridges not checked; cysteine pairing not given here; UniProt P12838 64-96, looked up)”, the “anti-SARS-CoV-2 activity (in words)” value in data set [2] was “substantially less potent”.

With “HBD6 (FFDEKCNKLKGTCKNNCGKNEELIALCQKSLKCCRTIQPCGSIID; ends and bridges not checked; cysteine pairing not given here; UniProt Q8N104 21-65, looked up)”, the “anti-SARS-CoV-2 activity (in words)” value in data set [2] is listed as “did not effectively inhibit viral infection”.

Turning to “HBD5 (GLDFSQPFPSGEFAVCESCKLGRGKCRKECLENEKPDGNCRLNFLCCRQRI; ends and bridges not checked; cysteine pairing not given here; UniProt Q8NG35 28-78, looked up)”, in data set [2], the “anti-SARS-CoV-2 activity (in words)” value is recorded as “did not effectively inhibit viral infection”.

B1: pro-HD5 (protein, UniProt Q01523 20-94, looked up)
pro-form: ESLQERADEATTQKQSGEDNQDLAISFAGNGLSALRTSGSQARATCYCRTGRCATRESLSGVCEISGRLYRLCCR
modifications: pro-form
Turning to B1, the “anti-SARS-CoV-2 activity (in words)” value in data set [2] is reported as “no anti-SARS-CoV-2 activity”.
